Key:
[1] = system: A. fumigatus strain IFM52108; experiment: A. fumigatus respiratory tract infection model; assay type: in vivo, mice
Protocol: (§1) Female DBA/2N mice (age 8 weeks, Charles River Laboratories Japan, Inc.) were subcutaneously administered 200 mg/kg of 5-fluorouracil 5 or 6 days prior to infection in order to put the mice into a compromised state.
(§2) A. fumigatus strain IFM52108 and A. flavus strain IFM50915 were used.
A liquid containing spores of A. fumigatus strain IFM52108 stored at −80° C. was applied to Potato Dextrose agar medium (PDA, Eiken Chemical Co., Ltd.) followed by static culturing for 5 to 7 days at 35° C. and suspending in sterile physiological saline containing 0.05% Tween 80.
The number of spores was counted using a hemocytometer, and the liquid was diluted with sterile physiological saline containing 0.05% Tween 80 to a concentration of 1.2×10^6 cells/mL to 2.5×10^6 cells/mL to obtain an inoculation fungus liquid.
(§3) 50 μl of inoculation fungus liquid were inoculated into the nasal cavities of 9-week-old mice at 0.3×10^5 cells/mouse to 1.25×10^5 cells/mouse under Ketalar anesthesia.
(§4) 0.1 mL to 0.2 mL of each drug solution (dissolved in sterile physiological saline or 5% glucose solution, or dissolved in sterile physiological saline or 5% glucose solution containing 6.5% dimethylsulfoxide and 3.5% Tween 80) was administered to the individual and combination dose groups either into the peritoneal cavity or into the stomach using a gastric cannula corresponding to the administration route of the drug for 3 to 4 days at the rate of 1 to 2 times per day starting 0.5 hours to 1 hour after inoculation of fungus.
(§5) There were 5 to 9 animals in each group.
(§6) Infection protection results were assessed on survival rate 14 days after infection.

C. tropicalis = experiment: In vitro combination effects, checkerboard method by micro dilution (FIC index); assay type: cell-based, Candida tropicalis
Protocol: (§7) A clinically isolated strain retained by the Medical Mycology Research Center of Chiba University (Code No. IFM) and a clinically isolated strain retained by the Life Science Research Center of Gifu University (Code No. E) were used as Candida and Aspergillus strains.
(§8) Fungus liquid obtained by static culturing at 35° C. for 48 hours in Sabouraud Dextrose liquid medium (SDB, Becton, Dickinson and Co.) was diluted with RPMI 1640 medium (Nissui Pharmaceutical Co., Ltd.) containing 0.165 M 3-(N-morpholino)propanesulfonic acid (MOPS) to prepare a fungus liquid having a fungus concentration of 1×10^3 cells/mL to 2×10^3 cells/mL.
(§9) Test Compound 1 (0.0005 μg/mL to 1.56 μg/mL) in the horizontal rows (12 wells) of a 96-well flat-bottom plate, and an antifungal agent in the form of ravuconazole (0.0015 μg/mL to 6.25 μg/mL), fluconazole (0.008 μg/mL to 32 μg/mL), voriconazole (0.0002 μg/mL to 8 μg/mL), micafungin (0.0005 μg/mL to 0.25 μg/mL), caspofungin (0.0005 μg/mL to 1 μg/mL) or amphotericin B (0.008 μg/mL to 8 μg/mL) in the vertical rows (8 wells) of the flat-bottom plate were prepared by diluting so as to blend together using RPMI 1640 medium containing 0.165 M MOPS to obtain a control group, a single Test Compound 1 group, each one of antifungal agents groups and combination groups of Test Compound 1+each one of antifungal agents.
(§10) The fungus liquids prepared in (1) were inoculated into the wells of 96-well flat-bottom plate containing 20 μL/well to 75 μL/well of the diluted test drug liquids prepared in (2) at 80 μL/well to 125 μL/well, followed by aerobically static culturing for 25 hours to 48 hours at 35° C.
(§11) Combination effects of Test Compound 1 and the antifungal agents were measured with the checkerboard method by micro dilution.
(§12) Interaction between both drugs was assessed by calculating the FIC index using the calculation formula indicated below.
(§13) The FIC index was calculated for each combination of antifungal agent concentrations that inhibited fungal growth, and the minimum value of the resulting FIC index was used as a combination FIC index.
(§14) A combination FIC index of 0.5 or less was evaluated as indicating synergistic action, that of 0.5 to 1 or less was evaluated as indicating additive action, and that of 1 to 4 or less was evaluated as indicating indifferent action.
(§15) FIC Index=(MIC value of drug A during combination use/MIC value of drug A when used alone)+(MIC value of drug B during combination use/MIC value of drug B when used alone) (Calculation Formula)

A. flavus = experiment: as above; assay type: cell-based, Aspergillus flavus; conditions: A. flavus (4 strains), Table 2
Protocol: as §7
(§16) An Aspergillus strain stored frozen at −80° C., or spores obtained by static culturing at 35° C. for 1 week in Potato Dextrose agar medium (PDA, Eiken Chemical Co., Ltd.) followed by scraping from the container with a metal loop, was diluted with RPMI 1640 medium containing 0.165 M MOPS to prepare a fungus liquid having a fungus concentration of 0.75×10^4 cells/mL to 1.33×10^4 cells/mL.
as §9, §10, §11, §12, §13, §14, §15

C. albicans = experiment: as above; assay type: cell-based, Candida albicans
Protocol: as §7, §8, §9, §10, §11, §12, §13, §14, §15

A. fumigatus = experiment: as above; assay type: cell-based, Aspergillus fumigatus; conditions: A. fumigatus (16 strains)
Protocol: as §7, §16, §9, §10, §11, §12, §13, §14, §15

C. glabrata = experiment: as above; assay type: cell-based, Candida glabrata; conditions: C. glabrata (5 strains); combination use with Test Compound 1
Protocol: as §7, §8, §9, §10, §11, §12, §13, §14, §15

[2] = system: A. flavus strain IFM50915; experiment: A. flavus respiratory tract infection model; assay type: in vivo, mice
Protocol: as §1, §2
A liquid containing spores of A. flavus strain IFM50915 stored at −80° C. was thawed, and the number of spores was counted using a hemocytometer followed by diluting with sterile physiological saline containing 0.05% Tween 80 to a concentration of 0.6×10^6 cells/mL to 1.0×10^6 cells/mL to obtain an inoculation fungus liquid.
as §3, §4, §5, §6

[3] = C. tropicalis (5 strains), combination use with Test Compound 1
[4] = C. albicans (9 strains), combination use with Test Compound 1

## C[C@@H](c1nc(-c2ccc(C#N)cc2)cs1)[C@](O)(Cn1cncn1)c1ccc(F)cc1F [Ravuconazole, ravuconazole]
[1]; RVCZ 5 mg/kg
  14-day survival rate: 0%
[1]; RVCZ 10 mg/kg
  14-day survival rate: 40%
[1]; combination with the test compound of the invention
  Combination effects in mouse Aspergillus fumigatus infection model: synergistic combination effects
C. tropicalis; [3]
  Ratio indicating Additive effect of combination use with Test Compound 1: 0%
  Ratio indicating Antagonistic effect of combination use with Test Compound 1: 0%
  Ratio indicating Indifferent effect of combination use with Test Compound 1: 0%
  Ratio indicating Synergistic effect of combination use with Test Compound 1: 100%
C. tropicalis; Candida tropicalis strains E83037, E83038, E83039, E83040 and E83041, resistant to azole antifungal agents
  Effect of combination use with Test Compound 1 (FIC index evaluation): synergistic (A combination FIC index of 0.5 or less was evaluated as indicating synergistic action)
A. flavus
  Ratio indicating Additive effect of combination use with Test Compound 1: 25%
  Ratio indicating Antagonistic effect of combination use with Test Compound 1: 0%
  Ratio indicating Indifferent effect of combination use with Test Compound 1: 75%
  Ratio indicating Synergistic effect of combination use with Test Compound 1: 0%
C. albicans; [4]
  Ratio indicating Additive effect of combination use with Test Compound 1: 56%
  Ratio indicating Antagonistic effect of combination use with Test Compound 1: 0%
  Ratio indicating Indifferent effect of combination use with Test Compound 1: 0%
  Ratio indicating Synergistic effect of combination use with Test Compound 1: 44%
C. albicans; Candida albicans IFM49738, resistant to azole antifungal agents
  Effect of combination use with Test Compound 1 (FIC index evaluation): synergistic (A combination FIC index of 0.5 or less was evaluated as indicating synergistic action)
A. fumigatus
  Ratio indicating Additive effect of combination use with Test Compound 1: 6%
  Ratio indicating Antagonistic effect of combination use with Test Compound 1: 0%
  Ratio indicating Indifferent effect of combination use with Test Compound 1: 94%
  Ratio indicating Synergistic effect of combination use with Test Compound 1: 0%
C. glabrata
  Ratio indicating Additive effect of combination use with Test Compound 1: 60%
  Ratio indicating Antagonistic effect of combination use with Test Compound 1: 0%
  Ratio indicating Indifferent effect of combination use with Test Compound 1: 0%
  Ratio indicating Synergistic effect of combination use with Test Compound 1: 40%
[2]; RVCZ 2.5 mg/kg
  14-day survival rate: 40%
[2]; RVCZ 5 mg/kg
  14-day survival rate: 80%
